According to paper PMC11510591, “In Vitro Evaluation of Pharmacokinetic Properties of Selected Dual COX-2 and 5-LOX Inhibitors” (Pharmaceuticals, 2024):
Like-named read-outs stand apart in the source and are kept apart here.

Key:
[1] = BMC, Brij 35 mobile phase pH 5.5, 36.5 °C, C18 column
Method: BMC was performed using polyoxyethylene lauryl ether (Brij 35) as the most frequently used surfactant in this method. All other parameters (pH, temperature, and salinity) were set to achieve physiological conditions. The retention of compounds is mostly influenced by their lipophilicity and their interactions with both the modified stationary phase and the micelles in the mobile phase. Therefore, the elution behavior is determined by the combined effects of micelles, the stationary phase, and water. An important factor for this method is finding the optimal balance between organic solvent and aqueous phase.
BMC was performed on an Agilent 1200 Series (Agilent Technologies, Santa Clara, CA, USA) supplied with a binary pump, manual injector (20 µL), and DAD detector (190–950 nm) using a C18 column (ZORBAX Extend-C18 Analytical 4.6 × 150 mm; 5 µm, Agilent Technologies, Santa Clara, CA, USA). Mobile phase was a combination of aqueous phase (40 mmol/L solution of Brij 35 in 7 mmol/L Na2HPO4) and acetonitrile (70:30, v/v), and the mobile phase pH was adjusted to 5.5 using o-phosphoric acid. […] Retention factors (k) were calculated according to Equation (1). Column dead time (t0) was the retention time of DMSO at 220 nm, while tR was the retention time of a tested compound. k = (tR − t0)/t0(1)

[2] = test system: CD-1 mouse liver microsomes; conditions: pH 7.4; for Peak Area, t0: 0 min; for Peak Area, t: 30 min
Method: Microsomal stability (and thus susceptibility to metabolism) was tested using microsomes derived from CD-1 mouse liver. According to the applied protocol, both phases of metabolism were activated by the addition of cofactors NADPH and UDP-GlcUA. […] Stock solutions of all tested compounds (5 mM DMSO solutions) were diluted with 0.1 M potassium phosphate buffer pH 7.4 to obtain 0.1 mM solutions, which were further incubated according to the protocol. In order to activate both the 1st and 2nd phases of metabolism, NADPH and UDP-GlcUA were used as cofactors. Tested compounds were incubated at 37 °C for 30 min, and the incubation was quenched immediately after the addition of cofactors (t0) and after the defined incubation time (t) by mixing 100 µL of corresponding incubation mixtures with 200 µL of cold acetonitrile. All compounds were tested in duplicates, and their concentrations were determined using the HPLC-MS/MS method (Section 3.7.1).
The HPLC-MS/MS analysis was performed on the UHPLC chromatograph ACELLA (Thermo Fisher Scientific Inc., Madison, WI, USA), coupled to a triple quadrupole mass spectrometer TSQ Quantum Access MAX (Thermo Fisher Scientific Inc., Madison, WI, USA) with a heated electrospray ionization (HESI) interface. The column used was Zorbax Extend C18 (150 mm × 4.6 mm, 5 µm; Agilent Technologies), which was thermostated at 25 °C. The mobile phase consisted of acetonitrile and 0.1% formic acid (60:40, v/v), with a flow rate of 500 µL/min. The injection volume was 10 µL.

[3] = PAMPA test (hexadecane membrane), passive gastrointestinal absorption; assay type: in vitro ADME; conditions: donor pH 5.5, acceptor pH 7.4, 5 h, room temperature; for Papp at 5 h, 0.05 mM: PAMPA, read-out: Pe (effective passive permeability coefficient)
Method: The PAMPA test uses a 96-well plate coated with an impregnated filter material, forming an artificial membrane that separates donor and acceptor compartments. Egg lecithin in dodecane is commonly used to simulate membrane lipids, while hexadecane is effective for mimicking gastrointestinal membranes. […] Therefore, hexadecane dissolved in hexane was chosen in this study.
The phosphate buffer solution was prepared by dissolving 0.5292 g of NaH2PO4 × H2O and 0.0234 g of Na2HPO4 in purified water (200 mL). The phosphate buffer was divided into two portions, and the pH was adjusted to pH 5.5 and pH 7.4 using o-phosphoric acid. The donor solutions were prepared by diluting the stock solutions (5 mM DMSO solutions) with the buffer pH 5.5 to obtain the final concentration of 0.05 mM (the DMSO concentration in the donor solutions was 1%), while the acceptor solution was prepared as a 1% DMSO solution in the buffer pH 7.4. The use of DMSO as a cosolvent in PAMPA is necessary in cases of low-soluble compounds. It is usually used in concentrations up to 5% [25, 55, 56, 57].
The PAMPA test was performed according to the literature procedure using a 96-well microtiter polycarbonate filter plate (Merck Millipore, Carrigtwohill, Ireland) that was impregnated with 15 µL of a hexadecane/hexane (5:95, v/v) solution [52]. Donor solutions (300 µL per well) were transferred into each well of the donor plate. Acceptor solution was transferred into each well (300 µL per well) of the acceptor plate (MSSACCEPTOR, Millipore, Burlington, MA, USA) and covered by the donor plate to create a PAMPA sandwich. The system was incubated at room temperature for 5 h at a vibratory mixer. After incubation, the PAMPA sandwich was dissociated, and concentrations of all tested compounds in each well, as well as in the starting solutions, were determined using the HPLC method (Section 3.3.1).
The concentrations of tested compounds in the starting solutions, as well as in the donor and acceptor sections after incubation, were determined by the HPLC method on the Dionex Ultimate 3000 (Thermo Fisher Scientific, Waltham, MA, USA) equipped with a quaternary pump, autosampler, and DAD detector using a ZORBAX Eclipse XDB-C18 4.6 × 150 mm, 5 µm column (Agilent Technologies, Santa Clara, CA, USA).
R represents the retention, which is defined as the fraction of the tested compound retained in the PAMPA membrane (filters and plate materials), CD(t) is the concentration of a tested compound in a donor compartment after incubation time t, CA(t) is the concentration of a tested compound in an acceptor compartment after incubation time t, while CD(0) represents the concentration of a tested compound in a donor compartment at the beginning of the incubation (starting solution).

[4] = biological target: T1, human serum albumin (HSA) (Homo sapiens, UniProt P02768); assay type: binding; conditions: CHIRALPAK HSA column, ammonium acetate buffer pH 7.0/acetonitrile 85:15, 25 °C
T1 construct: purchased Sigma-Aldrich
T1 sequence (P02768 25-609): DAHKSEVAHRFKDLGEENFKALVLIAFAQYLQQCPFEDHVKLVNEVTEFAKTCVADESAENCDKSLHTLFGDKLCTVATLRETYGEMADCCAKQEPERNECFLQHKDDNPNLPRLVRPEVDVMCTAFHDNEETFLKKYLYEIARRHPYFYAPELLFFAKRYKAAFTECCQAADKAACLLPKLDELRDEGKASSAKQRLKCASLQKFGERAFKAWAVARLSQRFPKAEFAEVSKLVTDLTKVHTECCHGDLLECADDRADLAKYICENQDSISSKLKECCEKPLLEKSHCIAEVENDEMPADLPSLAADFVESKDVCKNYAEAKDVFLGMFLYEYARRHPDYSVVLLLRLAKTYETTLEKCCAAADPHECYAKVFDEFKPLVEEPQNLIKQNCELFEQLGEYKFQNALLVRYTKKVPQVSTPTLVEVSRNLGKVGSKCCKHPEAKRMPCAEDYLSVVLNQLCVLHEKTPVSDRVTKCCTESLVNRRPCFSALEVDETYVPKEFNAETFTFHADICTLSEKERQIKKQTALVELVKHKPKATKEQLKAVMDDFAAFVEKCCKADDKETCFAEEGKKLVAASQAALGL
Method: Recently, interactions of many newly synthesized structurally diverse compounds with HSA were successfully studied using this technique. The degree of binding of the tested compounds to HSA was evaluated based on their retention behavior on the stationary phase modified with HSA. The logarithmic values of retention factors (logk) were used to evaluate indirectly and compare the drug–HSA interaction.
HPAC analysis was performed on an Agilent 1200 Series chromatograph (Agilent Technologies, Santa Clara, CA, USA). […] The mobile phase consisted of ammonium acetate buffer (pH 7.0; 0.01 M) and acetonitrile (85:15, v/v). The flow rate was 0.6 mL/min, the temperature was set to 25 °C, and the detection of tested compounds was carried out at 283 nm. Tested compounds were dissolved in DMSO (at a concentration of 1 mg/mL), further diluted with the mobile phase to a final concentration of 0.05 mg/mL, and analyzed in triplicate. The HPAC conditions were selected not only with the aim of achieving satisfactory retention characteristics of all synthesized compounds but also taking into account recommendations of a column manufacturer. Retention factors were calculated using Equation (1), where t0 (column dead time) was the retention time of DMSO at 220 nm.

[5] = biological target: T1, human serum albumin (HSA); assay: Differential pulse voltammetry (DPV), interaction with HSA; assay type: binding; conditions: compound 0.05 mmol/L, PBS pH 7.4, HSA 0.05–10 μmol/L
Method: The electrochemical oxidation of the tested compounds at a concentration of 0.05 mmol/L in PBS buffer pH 7.4 was investigated by differential pulse voltammetry (DPV). […] For all tested compounds, a preliminary study of the interaction with HSA was performed at a concentration of 0.05 mmol/L and different HSA concentrations (0.05–10 μmol/L) using DPV. […] It has been reported that the shift in the potential of an electroactive ligand is a suitable criterion to determine the mode of the macromolecule–ligand interaction. In this context, a positive shift in potential is an indication of hydrophobic interaction of investigated compounds with HSA [34]. The decrease in peak current could be due to the formation of a non-electroactive supramolecular compound by the drug–protein interaction, which reduces the concentration of free drug.
The voltammetric measurements were carried out with the µAutolab analyzer (EcoChemie, Utrecht, The Netherlands). A three-electrode system with a GCE working electrode, an Ag/AgCl reference electrode, and a Pt-auxiliary electrode was used. Before each experiment, the GCE was manually polished with an aqueous slurry of Al2O3 powder (particle size of 0.05 μm) on a smooth polishing pad, sonicated in deionized water, and then treated in absolute ethanol. Phosphate buffer saline (PBS) pH 7.4 was used as the supporting electrolyte. The experiments were carried out with deaerated PBS buffer. A stock solution of HSA in PBS at a concentration of 0.1 mmol/L was used. […] The interaction between tested compounds and HSA was examined in PBS solution, using solutions of tested compounds in a concentration of 0.05 mmol/L and HSA solution with a concentration in the range of 0.05–10 μmol/L.
The percentage of free compound (Equation (4)) was calculated from the ratio of the current intensity (IINT) for a given compound concentration (0.05 mmol/L) in the presence of albumin to the signal obtained at the same compound concentration only in the presence of the supporting electrolyte (PBS buffer) (IC).

SMILES	Retention factors (k) [1]	Retention factors (k) ([1]; listed as diclofenac)	Peak Area, t0 [2]	Peak Area, t [2]	Papp at 5 h, 0.05 mM [3] [×10⁻⁶ cm/s]	–logPe [3]	–logPe ([3]; listed as diclofenac)	–logPe ([3]; listed as flurbiprofen)	Retention Factors (logk) [4]	Retention Factors (logk) ([4]; listed as flurbiprofen)	% Bound Drug [5]	ΔE, DPV peak potential shift after interaction with HSA [5]	–logPe ([3]; listed as ibuprofen)	–logPe ([3]; listed as indomethacin)
O=C(O)Cc1ccccc1Nc1c(Cl)cccc1Cl [Diclofenac, diclofenac]	8.25 ± 0.00	8.25	126.2 ± 2.8 ×10^3	99.7 ± 5.3 ×10^3	> 400	<3.40	≤ 3.46	–	–	–	–	–	–	–
CC(C(=O)O)c1ccc(-c2ccccc2)c(F)c1 (stereo not shown) [Flurbiprofen, flurbiprofen]	7.14 ± 0.02	–	–	–	> 400	<3.40	–	≤ 3.46	11.03 ± 0.02	11.03	Electrochemically inactive	Electrochemically inactive	–	–
CC(C)Cc1ccc(C(C)C(=O)O)cc1 (stereo not shown) [Ibuprofen, ibuprofen]	13.36 ± 0.00	–	–	–	> 400	<3.40	–	–	–	–	–	–	≤ 3.46	–
COc1ccc2c(c1)c(CC(=O)O)c(C)n2C(=O)c1ccc(Cl)cc1 [Indomethacin, indomethacin, reference compound]	10.20 ± 0.03	–	241.9 ± 2.5 ×10^3	206.9 ± 9.0 ×10^3	386	3.41 ± 0.05	–	–	–	–	–	–	–	≤ 3.46
